How the values were obtained:
Type in all cases: in vivo
onion = assay: Growth, yield and yield attributes of onion (Test-3)
Procedure: The method of testing effect of additive 10 on different properties of soil was similar to the method as disclosed in Test-1 of Experiment-2, except time period which is 2 months instead of 9 months. The effect of additive was tested on soil using additive 10.
The effect of the additive 10, agricultural composition and agricultural composition along with fertilizer prepared in accordance with the present disclosure on the growth of onion was studied. Additive 10 prepared in Experiment 1 was used for the study. The study was conducted in the presence and in absence of the additive of the present disclosure to determine the effect of the additive on onion. Further, the effect of agricultural composition and agricultural composition along with fertilizer was studied. The study was carried out at a village in Bhavnagar District (Gujarat). The study was carried out in Two Plots: one plot, the additive of the present disclosure application and the other plot, urea application under Spacing of two rows and plants (15 cm×10 cm).
The effect of additive 10, agricultural composition and agricultural composition along with fertilizer on growth, yield and yield attributes of onion was carried and the comparative results obtained are summarized in Table-5a.

pigeon pea (Toor) = assay: Comparative report of parameters for pigeon pea (Toor), Table 7 (protein, energy, ash, minerals); settings: pigeon pea (Toor) trial
Pigeon pea crop = assay: Yield and yield attributes of pigeon pea (Test-5)
Procedure: The study was carried out with and without the additive of the present disclosure in different plots at a village in […] District (Gujarat). The Pigeon pea crop was planted in 90 cm between two rows and 20 cm of two plants under fields. The result pertaining to plant height, number of branches per plant, number of pods per plant, grain and haulm yield of pigeon pea crop recorded at harvest as influenced by additive of the present disclosure is summarized in Table-7a. Further, the effect of the plant growth regulator and agricultural composition and the comparative results obtained are summarized in Table-7b.

NC(N)=O [urea]
Ave. bulb weight (onion): 51.50 g
Bulb yield (onion): 34.30 t/ha
Leaf area (onion): 930 cm²
Plant height (onion): 56.00 cm
Energy (pigeon pea (Toor)): 355.01 Kcal/100 gm
Total Ash (pigeon pea (Toor); LOQ 0.1): 3.94 gm/100 gm
Total Protein (pigeon pea (Toor); LOQ 0.5): 16.47 gm/100 gm
Calcium (as Ca) (pigeon pea (Toor); LOQ 2.5): 508.85 mg/kg
Iron (as Fe) (pigeon pea (Toor); LOQ 2.5): 11.48 mg/kg
Manganese (as Mn) (pigeon pea (Toor); LOQ 2.5): 4.71 mg/kg
Zinc (as Zn) (pigeon pea (Toor); LOQ 2.5): 10.99 mg/kg
Grain yield (Pigeon pea crop): 1060 kg/ha
Haulm yield (Pigeon pea crop): 1285 kg/ha
Number of branches per plant (Pigeon pea crop; at harvest): 10.0
Number of pods per plant (Pigeon pea crop; at harvest): 172.0
Plant height (Pigeon pea crop; at harvest): 133.0 cm
